US20130116219A1, “ANTIMICROBIAL CARBOLINE COMPOUNDS” (ALCON RESEARCH, LTD., priority 2011, published 2013)
Values after ≈ are worked out from the molar mass of the structure shown.

Key:
Ad19 = assay: Plaque reduction assay in A549 cells, Ad19; assay type: cell-based; conditions: unidentified adenovirus, 168 h, approximately 7 d, read-out: Adenovirus Serotype EC50 (μg/mL) Ad19
Method: (§1) Compounds of the present invention were tested for potency against AdV serotypes Ad3, Ad4, Ad5, Ad7a, Ad8, Ad19, and Ad37 in a plaque reduction assay, a cell-based assay of AdV replication. Ad8, Ad19, and Ad37 are the serotypes most commonly associated with epidemic keratoconjunctivitis (EKC). Ad3, Ad4, and Ad7a are serotypes most commonly associated with follicular conjunctivitis and serotype Ad5 can replicate in the NZW rabbit model of adenoviral ocular keratitis. Ad3, Ad4, Ad5, Ad7a, Ad8, and Ad19 were recovered at the Charles T. Campbell Ophthalmic Microbiology Laboratory from patients presenting with typical adenoviral ocular disease. No clinical isolates of Ad37 were available, so the ATCC (American Type Culture Collection, Manassas, Va.) reference strain of Ad37 was used.
(§2) EC50 values (μg/ml) for inhibition of adenoviral replication were determined by plaque reduction assay. Briefly, cultured A549 cells were inoculated with approximately 100 pfu of the indicated adenovirus serotype. Inoculated cells were overlaid with methylcellulose medium containing Compound 2 at 100, 10, 1, 0.1, 0.01, and 0.001 μg/ml, and incubated at 37° C./5% CO2 for approximately 7 d. Plates were stained with gentian violet, and plaques were counted in a 25× dissecting microscope. IC50, the concentration that inhibited plaque formation by 50%, was estimated from plots of mean plaque count vs. concentration.

Ad8 = assay: Plaque reduction assay in A549 cells, Ad8; assay type: cell-based; conditions: unidentified adenovirus, A549, 168 h, read-out: Adenovirus Serotype EC50 (μg/mL) Ad8
Method: as §1, §2

Ad37 = assay: Plaque reduction assay in A549 cells, Ad37; assay type: cell-based; conditions: unidentified adenovirus, 168 h, approximately 7 d, ATCC reference strain, read-out: Adenovirus Serotype EC50 (μg/mL) Ad37
Method: as §1, §2

Ad5 [1] = assay: Ad5 genome replication assay (cell-based QPCR) in A549 cells; conditions: Human adenovirus sp., A549, 72 h, read-out: Ad5 qPCR EC50 (μM)
Method: Compounds of the present invention were tested for potency against Ad5 in an Ad5 genome replication assay, a cell-based QPCR assay of Ad5 genome replication in A549 cells, a human lung carcinoma cell line. Serotype of human Ad5, used in this replication assay can also replicate in a NZW rabbit model of adenoviral ocular keratitis.
EC50 values (μM) for inhibition of adenoviral replication were determined by QPCR. Briefly, 10,000 cultured A549 cells were inoculated with 25,000 pfu/well for 3 hrs in 2% FBS F12-K A549 culture media. Following inoculation, A549 cells were treated with log unit dilutions of compound of Formula I (˜10 μM thru˜10 pM) in 10% FBS F12-K culture media with 0.3% DMSO for an additional 3 days. Cell viability was assessed with Alamar Blue (10 μl/well for 2 hrs; fluorescence Ex353; Em595 nm). Plates were washed 3 times with 125 μl PBS, cell lysates were prepared for QPCR analysis using Cells to SNP kit (Life Technologies). Ad5 genome levels per cell were determined with RNaseP and Ad5 hexon Taqman Assays (Life Technologies). EC50, the concentration that inhibited Ad5 genome replication formation by 50%, was estimated from plots of Ad5 genomes/cell vs. compound concentration.

Ad5 [2] = assay: Plaque reduction assay in A549 cells, Ad5; assay type: cell-based; conditions: unidentified adenovirus, A549, 168 h, read-out: Adenovirus Serotype EC50 (μg/mL) Ad5
Method: as §1, §2

Ad4 = assay: Plaque reduction assay in A549 cells, Ad4; assay type: cell-based; conditions: unidentified adenovirus, 168 h, approximately 7 d, read-out: Adenovirus Serotype EC50 (μg/mL) Ad4
Method: as §1, §2

Ad7a = assay: Plaque reduction assay in A549 cells, Ad7a; assay type: cell-based; conditions: unidentified adenovirus, 168 h, approximately 7 d, read-out: Adenovirus Serotype EC50 (μg/mL) Ad7a
Method: as §1, §2

Ad3 = assay: Plaque reduction assay in A549 cells, Ad3; assay type: cell-based; conditions: unidentified adenovirus, 168 h, approximately 7 d, read-out: Adenovirus Serotype EC50 (μg/mL) Ad3
Method: as §1, §2

AdV serotype 5 (Ad5) = conditions: Harvey et al., Antiviral Res. 82:1-11, 2009; read-out: EC50, inhibition of replication of AdV serotype 5 (Ad5); cited from earlier work
[3] = tested on: human papillomavirus (HPV); conditions: Harvey et al., Antiviral Res. 82:1-11, 2009; read-out: EC50, inhibition of replication of human papillomavirus (HPV); cited from earlier work
Epstein-Barr virus (EBV) = conditions: Harvey et al., Antiviral Res. 82:1-11, 2009; read-out: EC50, inhibition of replication of Epstein-Barr virus (EBV); cited from earlier work
polyoma virus SV40 = conditions: Harvey et al., Antiviral Res. 82:1-11, 2009; read-out: EC50, inhibition of replication of polyoma virus SV40; cited from earlier work

Structure (SMILES)	EC50 (Ad19)	EC50 (Ad8)	EC50 (Ad37)	EC50 (Ad5 [1])	EC50 (Ad5 [2])	EC50 (Ad4)	EC50 (Ad7a)	EC50 (Ad3)	EC50 (AdV serotype 5 (Ad5))	EC50 [3]	EC50 (Epstein-Barr virus (EBV))	EC50 (polyoma virus SV40)
CC(C)C[C@H]1c2[nH]c3ccc(Cl)cc3c2CCN1C(=O)CCN1CC[C@H](F)C1 [Compound 35, 1-((S)-6-chloro-1-isobutyl-3,4-dihydro-1H-pyrido[3,4-b]indol-2(9H)-yl)-3-((S)-3-fluoropyrrolidin-1-yl)propan-1-one]	0.1 to 1 µg/mL (≈ 0.246 to 2.46 µM)	0.1 to 1 µg/mL (≈ 0.246 to 2.46 µM)	0.1 to 1 µg/mL (≈ 0.246 to 2.46 µM)	0.1 to 1 µM	0.1 to 1 µg/mL (≈ 0.246 to 2.46 µM)	> 1 µg/mL	0.1 to 1 µg/mL (≈ 0.246 to 2.46 µM)	0.1 to 1 µg/mL (≈ 0.246 to 2.46 µM)				
CC(C)C[C@H]1c2[nH]c3ccc(Cl)cc3c2CCN1C(=O)CCN1CCN(CC(F)F)CC1 [Compound 73, (S)-1-(6-chloro-1-isobutyl-3,4-dihydro-1H-pyrido[3,4-b]indol-2(9H)-yl)-3-(4-(2,2-difluoroethyl)piperazin-1-yl)propan-1-one]	> 1 µg/mL	0.1 to 1 µg/mL (≈ 0.214 to 2.14 µM)	> 1 µg/mL	0.1 to 1 µM	0.1 to 1 µg/mL (≈ 0.214 to 2.14 µM)	0.1 to 1 µg/mL (≈ 0.214 to 2.14 µM)	0.1 to 1 µg/mL (≈ 0.214 to 2.14 µM)	0.1 to 1 µg/mL (≈ 0.214 to 2.14 µM)				
CC(C)C[C@H]1c2[nH]c3ccc(Cl)cc3c2CCN1C(=O)C1CN(C2CC2)C1 [Compound 92, (S)-(6-chloro-1-isobutyl-3,4-dihydro-1H-pyrido[3,4-b]indol-2(9H)-yl)(1-cyclopropylazetidin-3-yl)methanone]	0.1 to 1 µg/mL (≈ 0.259 to 2.59 µM)	> 1 µg/mL	0.1 to 1 µg/mL (≈ 0.259 to 2.59 µM)	0.1 to 1 µM	0.1 to 1 µg/mL (≈ 0.259 to 2.59 µM)	> 1 µg/mL	0.1 to 1 µg/mL (≈ 0.259 to 2.59 µM)	> 1 µg/mL				
CC(C)C[C@H]1c2[nH]c3ccc(Br)cc3c2CCN1C(=O)C1CCN(C2CC2)CC1 [Compound 97, (S)-(6-bromo-1-isobutyl-3,4-dihydro-1H-pyrido[3,4-b]indol-2(9H)-yl)(1-cyclopropylpiperidin-4-yl)methanone]	0.1 to 1 µg/mL (≈ 0.218 to 2.18 µM)	< 0.1 µg/mL	0.1 to 1 µg/mL (≈ 0.218 to 2.18 µM)	< 0.1 µM	< 0.1 µg/mL	> 1 µg/mL	0.1 to 1 µg/mL (≈ 0.218 to 2.18 µM)	0.1 to 1 µg/mL (≈ 0.218 to 2.18 µM)				
CC(C)C[C@H]1c2[nH]c3ccc(Cl)cc3c2CCN1C(=O)CCC1CCCCC1 [Compound 43, (S)-1-(6-chloro-1-isobutyl-3,4-dihydro-1H-pyrido[3,4-b]indol-2(9H)-yl)-3-cyclohexylpropan-1-one]	< 0.1 µg/mL	< 0.1 µg/mL	< 0.1 µg/mL	< 0.1 µM	< 0.1 µg/mL	0.1 to 1 µg/mL (≈ 0.249 to 2.49 µM)	< 0.1 µg/mL	0.1 to 1 µg/mL (≈ 0.249 to 2.49 µM)				
CC(C)C[C@H]1c2[nH]c3ccc(Cl)cc3c2CCN1C(=O)CCN1CCC(F)(F)CC1 [Compound 6, (S)-1-(6-chloro-1-isobutyl-3,4-dihydro-1H-pyrido[3,4-b]indol-2(9H)-yl)-3-(4,4-difluoropiperidin-1-yl)propan-1-one]	< 0.1 µg/mL	< 0.1 µg/mL	< 0.1 µg/mL	< 0.1 µM	< 0.1 µg/mL	0.1 to 1 µg/mL (≈ 0.228 to 2.28 µM)	< 0.1 µg/mL	< 0.1 µg/mL				
CC(C)C[C@H]1c2[nH]c3ccc(Cl)cc3c2CCN1C(=O)C1CCN(C2CC2)CC1 [Compound 93, (S)-(6-chloro-1-isobutyl-3,4-dihydro-1H-pyrido[3,4-b]indol-2(9H)-yl)(1-cyclopropylpiperidin-4-yl)methanone]	0.1 to 1 µg/mL (≈ 0.242 to 2.42 µM)	0.1 to 1 µg/mL (≈ 0.242 to 2.42 µM)	0.1 to 1 µg/mL (≈ 0.242 to 2.42 µM)	0.1 to 1 µM	0.1 to 1 µg/mL (≈ 0.242 to 2.42 µM)	0.1 to 1 µg/mL (≈ 0.242 to 2.42 µM)	0.1 to 1 µg/mL (≈ 0.242 to 2.42 µM)	0.1 to 1 µg/mL (≈ 0.242 to 2.42 µM)				
O=C(N[C@@H]1CCCc2c1[nH]c1ccc(Cl)cc21)c1ccccn1 [GSK-983]									5 to 20 nM	5 to 20 nM	5 to 20 nM	5 to 20 nM
